PubChem BioAssay AID1963832 (Molecular Pharmacology Branch, DTP, NCI, 2024)

Tested on: 885724-159-R-J1-PDC complex spheroid viability
Assay: Anticancer human tumor 885724-159-R-J1-PDC patient-derived pancreatic adenocarcinoma cell line growth inhibition [POLQ]
Details: for IC50: curve of first compound; for viability, T/C: stronger effect = lower value
Experimental: Multicellular complex tumor spheroid response to Polymerase (POL) inhibitors (novobiocin, ART-558, RP6685) in combination with a variety of drugs and investigational agents in selected tumor cell lines
The POL inhibitors (novobiocin, ART-558, and RP6685) were evaluated both individually and in combination with standard of care and investigational anticancer small molecules within a complex spheroid model of solid tumors. . Complex spheroids include a stromal component modeled by human endothelial cells (HUVEC) and fibroblasts modeled by human mesenchymal stem cells (MSCs). The concentration ranges selected for each drug and investigational agent were based upon clinically achievable concentrations if the clinical Cmax of the agent was known.
Compounds. The drugs and investigational agents: novobiocin (NSC847541), ART-558 (NSC835418), RP-6685 (NSC848927), peposertib (NSC802822), ceralasertib (NSC780249), elimusertib (NSC800525), camonsertib (NSC841442), AZD-1390 (NSC803789), olaparib (NSC753686), talazoparib (NSC767125), rucaparib (NSC756644), sotorasib (NSC818433), MRTX-1133 (NSC836407), SN-38 (NSC673596), topotecan (NSC609699), epotoside (NSC141540), doxorubicin (NSC123127), gemcitabine (NSC613327), 5-fluorouracil (NSC19893), paclitaxel (NSC125973), vemurafenib (NSC761431), MSA-2 (NSC828583), SN-011 (NSC837082), adavosertib (NSC754352), prexasertib (NSC758257), carboplatin (NSC241240) and oxaliplatin (NSC266046), were obtained from the National Cancer Institute (NCI) Developmental Therapeutics Program Chemical Repository (21). The FDA-approved anticancer drug set is available from the Developmental Therapeutics Program at https://dtp.cancer.gov/organization/dscb/obtaining/. […] The stock solutions were prepared in dimethyl sulfoxide (DMSO, Sigma-Aldrich, St. Louis, MO, cat. D2650), except for the platinum compounds which were prepared in saline (Quality Biological, Gaithersburg, MD, cat. 114-055-101), at 800-fold the tested concentration and stored at -70 degrees C prior to their use. All drugs and investigational agents were tested over a range starting from a high concentration at or near the clinical Cmax and decreasing in half-log increments. If the clinical Cmax for an agent had not been determined, the highest concentration tested was 10 microM, except for SN-38, which was tested at a high concentration of 1 microM.
Cell Culture. All cells were maintained in an incubator at 37 degrees C and 5% CO2 with 95% humidity. The PDC lines were cultured according to standard operating procedures established by the NCI PDMR (https://pdmr.cancer.gov). Table 3 of the manuscript, lists the cell lines along with the number of the three cell types plated to form the mct-spheroids and media for tumor cell growth. After thawing, all PDC lines, except 997537-175-T-J1-PDC and 415267-285-R-J2-PDC, were cultured in Matrigel-coated flasks prepared with a working solution of 1X Ham's F-12 nutrient mix, without supplementation (Thermo Fisher Scientific, cat. 11765054), 100 U/mL penicillin-streptomycin (Thermo Fisher Scientific, cat. 15140122), and 2.5% Matrigel (Corning Inc., Corning, NY, cat. 354248) for the first three passages. The two PDC lines 997537-175-T-J1-PDC and 415267-285-R-J2-PDC were cultured on uncoated flasks. The 857933-349-R-J2-PDC line was cultured in 6C/Colon 1B media containing advanced DMEM/F-12 (Thermo Fisher Scientific, cat. 12634028), 10 mM HEPES (Thermo Fisher Scientific, cat. 15630080), 1X GlutaMAX supplement (Thermo Fisher Scientific, cat. 35050061), 0.1 mg/mL primocin (InvivoGen, San Diego, CA, cat. ant-pm-2), 10% defined fetal bovine serum, heat inactivated (HyClone Laboratories Inc., Logan, UT, cat. SH30070.03HI), 50% L-WRN conditioned media (ATCC, cat. CRL-3276), 1.25 mM N-Acetyl-L-cysteine (Sigma-Aldrich, cat. A9165), 10 mM nicotinamide (Sigma-Aldrich, cat. N0636), 1X B-27 supplement (Thermo Fisher Scientific, cat. 17504044), 1X N-2 supplement (Thermo Fisher Scientific, cat. […]

[1] = second compound 0.0316 µM, first compound 0.0316 µM
[2] = second compound 0.0316 µM, first compound 0.1 µM
[3] = second compound 0.0316 µM, first compound 0.316 µM
[4] = second compound 0.0316 µM, first compound 1 µM
[5] = second compound 0.1 µM, first compound 0.0316 µM
[6] = second compound 0.1 µM, first compound 0.1 µM
[7] = second compound 0.1 µM, first compound 0.316 µM
[8] = second compound 0.1 µM, first compound 1 µM
[9] = second compound 0.316 µM, first compound 0.0316 µM
[10] = second compound 0.316 µM, first compound 0.1 µM
[11] = second compound 0.316 µM, first compound 0.316 µM
[12] = second compound 0.316 µM, first compound 1 µM
[13] = second compound 1 µM, first compound 0.0316 µM
[14] = second compound 1 µM, first compound 0.1 µM
[15] = second compound 1 µM, first compound 0.316 µM
[16] = second compound 1 µM, first compound 1 µM
[17] = second compound 3.16 µM, first compound 0.0316 µM
[18] = second compound 3.16 µM, first compound 0.1 µM
[19] = second compound 3.16 µM, first compound 0.316 µM
[20] = second compound 3.16 µM, first compound 1 µM
[21] = second compound 10 µM, first compound 0.0316 µM
[22] = second compound 10 µM, first compound 0.1 µM
[23] = second compound 10 µM, first compound 0.316 µM
[24] = second compound 10 µM, first compound 1 µM
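Note: spheroids exposed to compounds for 7 days.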

For `CNCc1ccc(-c2[nH]c3cc(F)cc4c3c2CCNC4=O)cc1` + Nc1ccc(C#CCN(C(=O)Cc2ncc(C(F)(F)F)cc2C(F)(F)F)c2ccc(F)cc2)nn1, which IC50 (second compound 0.0316 µM) is on record?
The IC50 was greater than 10000 nM.

What about the IC50 (second compound 0.1 µM) of the same compound?
The IC50 was greater than 10000 nM.

What about the IC50 (second compound 0.316 µM) of the same compound?
Its IC50 is greater than 10000 nM.

And the IC50 (second compound 1 µM)?
The IC50 was greater than 10000 nM.

What about the IC50 (second compound 3.16 µM) of the same compound?
The IC50 was greater than 10000 nM.

And the IC50 (second compound 10 µM)?
Its IC50 is greater than 10000 nM.

What about the viability, T/C [1] of the same compound?
Its viability, T/C is 89%.

What about the viability, T/C [2] of the same compound?
The viability, T/C was 93%.

What about the viability, T/C [3] of the same compound?
Its viability, T/C is 87.5%.

And the viability, T/C [4]?
The viability, T/C was 91%.

What about the viability, T/C (second compound 0.0316 µM, first compound 3.16 µM) of the same compound?
The viability, T/C was 92.3%.

And the viability, T/C (second compound 0.0316 µM, first compound 10 µM)?
The viability, T/C was 91.1%.

And the viability, T/C [5]?
Its viability, T/C is 101%.

And the viability, T/C [6]?
Its viability, T/C is 88.3%.

What about the viability, T/C [7] of the same compound?
The viability, T/C was 92.5%.

And the viability, T/C [8]?
Its viability, T/C is 94.2%.

And the viability, T/C (second compound 0.1 µM, first compound 3.16 µM)?
Its viability, T/C is 89.9%.

What about the viability, T/C (second compound 0.1 µM, first compound 10 µM) of the same compound?
The viability, T/C was 85.6%.

What about the viability, T/C [9] of the same compound?
Its viability, T/C is 95.5%.

What about the viability, T/C [10] of the same compound?
The viability, T/C was 81.1%.

And the viability, T/C [11]?
Its viability, T/C is 85.9%.

What about the viability, T/C [12] of the same compound?
Its viability, T/C is 89.8%.

What about the viability, T/C (second compound 0.316 µM, first compound 3.16 µM) of the same compound?
Its viability, T/C is 96.5%.

What about the viability, T/C (second compound 0.316 µM, first compound 10 µM) of the same compound?
Its viability, T/C is 92.7%.

What about the viability, T/C [13] of the same compound?
The viability, T/C was 88.7%.

What about the viability, T/C [14] of the same compound?
The viability, T/C was 101%.

And the viability, T/C [15]?
Its viability, T/C is 89.7%.

And the viability, T/C [16]?
The viability, T/C was 85.7%.

What about the viability, T/C (second compound 1 µM, first compound 3.16 µM) of the same compound?
Its viability, T/C is 88.7%.

What about the viability, T/C (second compound 1 µM, first compound 10 µM) of the same compound?
The viability, T/C was 83.4%.

What about the viability, T/C [17] of the same compound?
Its viability, T/C is 100%.

What about the viability, T/C [18] of the same compound?
Its viability, T/C is 96.8%.

What about the viability, T/C [19] of the same compound?
Its viability, T/C is 96.6%.

And the viability, T/C [20]?
Its viability, T/C is 88.6%.

And the viability, T/C (second compound 3.16 µM, first compound 3.16 µM)?
The viability, T/C was 98.3%.

And the viability, T/C (second compound 3.16 µM, first compound 10 µM)?
Its viability, T/C is 81.9%.

And the viability, T/C [21]?
Its viability, T/C is 92%.

And the viability, T/C [22]?
Its viability, T/C is 92.2%.

What about the viability, T/C [23] of the same compound?
The viability, T/C was 98.8%.

What about the viability, T/C [24] of the same compound?
Its viability, T/C is 91.5%.

What about the viability, T/C (second compound 10 µM, first compound 3.16 µM) of the same compound?
Its viability, T/C is 92.2%.

And the viability, T/C (second compound 10 µM, first compound 10 µM)?
The viability, T/C was 91.7%.

With `COc1cccc(OCCCN)c1-c1cc(Nc2cnc(C#N)cn2)n[nH]1` + Nc1ccc(C#CCN(C(=O)Cc2ncc(C(F)(F)F)cc2C(F)(F)F)c2ccc(F)cc2)nn1 as the compound, how does the IC50 (second compound 0.0316 µM) read?
The IC50 was 15.3 nM.

And the IC50 (second compound 0.1 µM)?
Its IC50 is 13.8 nM.

And the IC50 (second compound 0.316 µM)?
The IC50 was 14.2 nM.

What about the IC50 (second compound 1 µM) of the same compound?
Its IC50 is 15.5 nM.

And the IC50 (second compound 3.16 µM)?
The IC50 was 18.2 nM.

What about the IC50 (second compound 10 µM) of the same compound?
The IC50 was greater than 1000 nM.

And the viability, T/C (second compound 0.0316 µM, first compound 0.00316 µM)?
Its viability, T/C is 79%.

What about the viability, T/C (second compound 0.0316 µM, first compound 0.01 µM) of the same compound?
Its viability, T/C is 52%.

What about the viability, T/C [1] of the same compound?
Its viability, T/C is 46.1%.

And the viability, T/C [2]?
Its viability, T/C is 46%.

What about the viability, T/C [3] of the same compound?
Its viability, T/C is 45.7%.

What about the viability, T/C [4] of the same compound?
Its viability, T/C is 47.7%.

What about the viability, T/C (second compound 0.1 µM, first compound 0.00316 µM) of the same compound?
Its viability, T/C is 74%.

And the viability, T/C (second compound 0.1 µM, first compound 0.01 µM)?
The viability, T/C was 53%.

What about the viability, T/C [5] of the same compound?
Its viability, T/C is 43.2%.

What about the viability, T/C [6] of the same compound?
Its viability, T/C is 43.3%.

And the viability, T/C [7]?
Its viability, T/C is 43.3%.

And the viability, T/C [8]?
Its viability, T/C is 48.1%.

What about the viability, T/C (second compound 0.316 µM, first compound 0.00316 µM) of the same compound?
The viability, T/C was 77.3%.

What about the viability, T/C (second compound 0.316 µM, first compound 0.01 µM) of the same compound?
The viability, T/C was 51.5%.

What about the viability, T/C [9] of the same compound?
The viability, T/C was 47.3%.

What about the viability, T/C [10] of the same compound?
The viability, T/C was 42.9%.

And the viability, T/C [11]?
The viability, T/C was 43%.

And the viability, T/C [12]?
Its viability, T/C is 48.6%.

And the viability, T/C (second compound 1 µM, first compound 0.00316 µM)?
Its viability, T/C is 73.7%.

What about the viability, T/C (second compound 1 µM, first compound 0.01 µM) of the same compound?
The viability, T/C was 51.1%.

What about the viability, T/C [13] of the same compound?
The viability, T/C was 50.1%.

What about the viability, T/C [14] of the same compound?
Its viability, T/C is 41.3%.

What about the viability, T/C [15] of the same compound?
Its viability, T/C is 41%.

And the viability, T/C [16]?
Its viability, T/C is 46.7%.

What about the viability, T/C (second compound 3.16 µM, first compound 0.00316 µM) of the same compound?
Its viability, T/C is 68.4%.

And the viability, T/C (second compound 3.16 µM, first compound 0.01 µM)?
Its viability, T/C is 52.3%.

What about the viability, T/C [17] of the same compound?
Its viability, T/C is 46.6%.

And the viability, T/C [18]?
The viability, T/C was 44%.

And the viability, T/C [19]?
Its viability, T/C is 53.6%.

What about the viability, T/C [20] of the same compound?
Its viability, T/C is 48.1%.

And the viability, T/C (second compound 10 µM, first compound 0.00316 µM)?
The viability, T/C was 72.3%.

And the viability, T/C (second compound 10 µM, first compound 0.01 µM)?
The viability, T/C was 57.5%.

What about the viability, T/C [21] of the same compound?
Its viability, T/C is 46.1%.

And the viability, T/C [22]?
The viability, T/C was 49.7%.

What about the viability, T/C [23] of the same compound?
Its viability, T/C is 53.2%.

And the viability, T/C [24]?
The viability, T/C was 51.2%.
